We go through one compound from US20230390273A1, “4-PHENYL-TETRAHYDROPYRIDINE DERIVATIVES FOR TREATING HEARING DISEASES” (CILCARE DEV, priority 2021, published 2023).

Data set [1] in a line: Plasma and inner ear fluid exposure after single oral gavage (Example 1). The class given is in vivo, male Wistar rats. As to conditions: male, Wistar, single oral 20 mg/kg; for concentration at 2 h: T0 + 2 hours; for concentration at 4 h: T0 + 4 hours; for concentration at 24 h: T0 + 24 hours. As for the experimental part:
Two compositions were prepared: composition A and composition B.
Composition A is an aqueous solution comprising: • 6 mg/mL (free base equivalent) of fumarate salt of 1-[2-(4-biphenylyl)ethyl]-4-(3-trifluoromethylphenyl)-1,2,3,6-tetrahydropyridine (=paliroden fumarate), and • 0.6% w/v of methylcellulose with respect to the total volume of the aqueous solution.
Composition B is an aqueous solution comprising: • 4 mg/mL (free base equivalent) of hydrochloride salt of 1-[2-(2-naphthyl)ethyl]-4-(3-trifluoromethylphenyl)-1,2,3,6-tetrahydropyridine (=xaliproden hydrochloride), and • 10% w/v of arabic gum with respect to the total mass of the aqueous solution.
Composition A and composition B were administered to male Wistar rats (5 animals per active agent and timepoint), as described below.
Composition A was administered to 15 male Wistar rats, once, at time TO, via oral injection by gavage, at a dose of 5 mL of composition A per kilogram of the animal, i.e. a dose of 30 mg of paliroden fumarate per kilogram of the animal. The concentration of paliroden in rats plasma and in rats inner ear fluid (IEF) was measured at 6 timepoints, 5 rats being used at each timepoint for the concentration measurements (in the plasma and optionally in the IEF). The timepoints are T0+1 hour, T0+2 hours, T0+4 hours, T0+6 hours, T0+8 hours and T0+24 hours for the concentration measurement in the rats plasma. The timepoints are T0+2 hours, T0+4 hours and T0+24 hours for the concentration measurement in the rats inner ear fluid, as part of a terminal procedure including cochlea sampling and inner ear fluids collection from both ears of the rats. Bioanalytical methods were validated in both matrices (lithium heparin plasma and inner ear fluid) with a range of 0.25 to 500 ng/mL in plasma and 0.25 to 100 ng/mL in inner ear fluids.
Composition B was administered to 15 others male Wistar rats, once, at time T0, via oral injection by gavage, at a dose of 5 mL of composition B per kilogram of the animal, i.e. a dose of 20 mg of xaliproden hydrochloride per kilogram of the animal. The concentration of xaliproden in rats plasma and in rats inner ear fluid (IEF) was measured at 6 timepoints, 5 rats being used at each timepoint for the concentrations measurements (in the plasma and optionally in the IEF). The timepoints are T0+1 hour, T0+2 hours, T0+4 hours, T0+6 hours, T0+8 hours and T0+24 hours for the concentration measurement in the rats plasma. The timepoints are T0+2 hours, T0+4 hours and T0+24 hours for the concentration measurement in the rats inner ear fluid, as part of a terminal procedure including cochlea sampling and inner ear fluids collection from both ears of the rats. Bioanalytical methods were validated in both matrices (lithium heparin plasma and inner ear fluid) with a range of 0.25 to 500 ng/mL in plasma and 0.25 to 500 ng/mL in inner ear fluids.

A short description of data set [2]: Plasma and inner ear fluid exposure after single trans-tympanic injection in thermoreversible hydrogel composition (Example 4). It counts as in vivo, male Wistar rats. Conditions: for concentration at 1 h: T0 + 1 hour; for concentration at 24 h: T0 + 24 hours. Here is the method:
Composition 4P and composition 4X as described in example 2 were administered to male Wistar rats (5 animals per active agent and timepoint), as described below.
At time T0, 30 μL of composition 4P were administered to 15 rats, in a single ear via trans-tympanic injection. The dose of paliroden fumarate that has been administered is thus of 300 μg in one ear of each rat.
At time T0, 30 μL of composition 4X were administered to 15 other rats, in a single ear via trans-tympanic injection. The dose of xaliproden hydrochloride that has been administered is thus of 150 μg in one ear of each rat.
For the 15 rats that have received composition 4P and for the 15 rats that have received composition 4X, plasmatic and inner ear expositions were determined via blood and cochlea terminal sampling in order to achieve lithium-heparin plasma and inner ear fluid preparation, at T+1 hour, T+24 hours and T+168 hours. Bioanalytical methods were validated in both matrices (lithium heparin plasma and inner ear fluid) with a range of 0.2 to 815 ng/mL for paliroden (fumarate salt) and 0.38 to 763 ng/mL for xaliproden (hydrochloride salt).

[3] abbreviates: plasma, rat, read-out: Concentration of xaliproden (hydrochloride salt), Plasma, Mean.
Where [4] appears, read: rat inner ear fluid, read-out: Concentration of xaliproden (hydrochloride salt), IEF, Mean.
[5] abbreviates: male, Wistar, plasma, other: trans-tympanic injection, 150 μg in one ear, rat, trans-tympanic 150 μg one ear, suspension in thermoreversible hydrogel, read-out: Concentration of xaliproden (hydrochloride salt), Plasma, Mean.

Where a name gives a salt, the structure may show the parent alone. Read-outs that look alike come from different tables or passages of the source.

For `FC(F)(F)c1cccc(C2=CCN(CCc3ccc4ccccc4c3)CC2)c1` [xaliproden (hydrochloride salt), 1-[2-(2-naphthyl)ethyl]-4-(3-trifluoromethylphenyl)-1,2,3,6-tetrahydropyridine], the concentration at 1 h in data set [1] (plasma, rat, T0 + 1 hour, read-out: Concentration of xaliproden (hydrochloride salt), Plasma, Mean) amounted to 44.1 ng/mL; in data set [2] (male, Wistar, other: trans-tympanic injection, 150 μg in one ear, rat inner ear fluid, trans-tympanic 150 μg, thermoreversible hydrogel, n = 4, read-out: Concentration of xaliproden (hydrochloride salt), IEF, Mean) it was 5610 ng/mL; in data set [2] (setting [5]) it was 4.9 ng/mL. The concentration at 2 h was 58 ng/mL in data set [1] (setting [3]) and 19.4 ng/mL in data set [1] (setting [4]). For the same compound, the concentration at 4 h in data set [1] (setting [3]) is 25.1 ng/mL; in data set [1] (setting [4]), 21.7 ng/mL. Further, the concentration at 6 h in data set [1] (plasma, rat, T0 + 6 hours, read-out: Concentration of xaliproden (hydrochloride salt), Plasma, Mean) is 28.4 ng/mL. For the same compound, the concentration at 8 h in data set [1] (plasma, rat, T0 + 8 hours, read-out: Concentration of xaliproden (hydrochloride salt), Plasma, Mean) is 23.4 ng/mL. Also, the concentration at 24 h in data set [1] (setting [3]) turned out to be 44.1 ng/mL; in data set [1] (setting [4]), 16 ng/mL; in data set [2] (male, Wistar, other: trans-tympanic injection, 150 μg in one ear, rat inner ear fluid, trans-tympanic 150 μg, thermoreversible hydrogel, read-out: Concentration of xaliproden (hydrochloride salt), IEF, Mean), 108 ng/mL; in data set [2] (setting [5]), 9.2 ng/mL. Besides, the concentration at 7 days in data set [2] (male, Wistar, inner ear fluid, other: trans-tympanic injection, rat, trans-tympanic injection, thermoreversible hydrogel, 7 days, read-out: Concentrations in the inner ear fluid at 7 days post injection) is approximately 100 ng/mL. Moreover, in data set [2] (male, Wistar, other: trans-tympanic injection, 150 μg in one ear, rat inner ear fluid, trans-tympanic 150 μg, thermoreversible hydrogel, T0 + 168 hours, read-out: Concentration of xaliproden (hydrochloride salt), IEF, Mean), the concentration at 168 h worked out at 117 ng/mL. Besides, the “Concentration of xaliproden (hydrochloride salt), Plasma, Mean” value in data set [2] (rat, trans-tympanic 150 μg one ear, suspension in thermoreversible hydrogel, T0 + 168 hours) was “BLQ”. For the same compound, the “High concentrations rapidly reached in the inner ear fluid” value in data set [2] (rat, trans-tympanic injection, suspension in thermoreversible hydrogel, summary) is “approximately 5000 ng/mL”. Also, the “High concentrations rapidly reached in the IEF (molar)” value in data set [2] (rat, trans-tympanic injection, thermoreversible hydrogel, approximate conversion) is on record as “approximately 10 μM”.
